≈ marks a conversion by molar mass, not a printed value. Where two headings read alike, the source gives them in different places.
Key:
[1] = system: Candida albicans; assay: MIC/MFC broth microdilution (CLSI); type: cell-based; settings: Candida albicans SC5314
Procedure: (§1) Antifungal susceptibility was determined by broth microdilution according to the CLSI guidelines described in M27-Ed4 ([16]). […] MFC was determined by back-plating drug-treated cultures from MIC broths onto SDA plates. The MFC was defined as the lowest concentration from which no colonies could be cultured.

[2] = system: Aspergillus fumigatus; assay: MIC/MFC broth microdilution (CLSI); settings: ATCC204305
Procedure: as §1

[3] = system: Cryptococcus neoformans; assay: checkerboard drug interaction (FICI, MICc);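 for all read-outs here: antifungal plus FPPS inhibitor pairs tested against Cryptococcus neoformans by simplified diagonal checkerboard screening, FICI computed under the Loewe additivity model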; type: cell-based; settings: C. neoformans; for INH FD (MIC-MICc fold decrease): fold decrease of inhibitor MIC
Procedure: (§2) Drug interactions between antifungals and FPPS inhibitors were investigated using a simplified checkerboard diagonal screening method ([45]). […] FICIs were determined according to the Loewe additivity model ([17]).

[4] = system: Cryptococcus neoformans; assay: MIC/MFC broth microdilution (CLSI); settings: Cryptococcus neoformans;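 note: susceptibility testing followed the CLSI M27-Ed4 broth microdilution document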
Procedure: as §1

[5] = system: Aspergillus fumigatus; assay: checkerboard drug interaction (FICI, MICc); type: cell-based;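 note: simplified diagonal checkerboard screen pairing antifungals with FPPS inhibitors against Aspergillus fumigatus, with FICI calculated under the Loewe additivity model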
Procedure: as §2

[6] = system: Trichophyton rubrum; assay: checkerboard drug interaction (FICI, MICc);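 note: simplified diagonal checkerboard screen pairing azole antifungals with FPPS inhibitors, FICI calculated under the Loewe additivity model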; type: cell-based; settings: T. rubrum
Procedure: as §2

[7] = system: Candida glabrata; assay: MIC/MFC broth microdilution (CLSI); settings: Nakaseomyces glabratus, CBS138;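 note: broth microdilution following CLSI M27-Ed4, MFC taken as the lowest drug level yielding no growth once MIC wells were subcultured on SDA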
Procedure: as §1

[8] = system: HEK-293T cells; assay: MTT reduction cytotoxicity assay; type: cell-based; settings: Homo sapiens, HEK-293T, 72 h, MTT, 72 h
[9] = system: eight fungal species; assay: checkerboard interaction with azoles, summary across the eight species; type: cell-based; settings: geometric mean MIC in combination with azoles
From the text: Synergy between lipophilic FPPS inhibitors and azole antifungals was investigated by determining the fractional inhibitory concentration index (FICI) (Fig. 2; Table S1 Fig. S1) ([17]). […]. Derivatives PLA9 and 11, and PDA9, 11, and 12 antagonized azoles in C. albicans, C. neoformans, and C. deuterogattii, yet were largely synergistic in C. glabrata and S. cerevisiae. […].

[10] = system: Candida glabrata; assay: checkerboard drug interaction (FICI, MICc);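 for all read-outs here: simplified diagonal checkerboard screen pairing antifungals with FPPS inhibitors, FICI calculated under the Loewe additivity model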; type: cell-based; settings: C. glabrata; for INH FD (MIC-MICc fold decrease): fold decrease of inhibitor MIC
Procedure: as §2

[11] = system: Trichophyton rubrum; assay: MIC/MFC broth microdilution (CLSI); settings: Trichophyton rubrum
Procedure: as §1

[12] = system: Aspergillus flavus; assay: MIC/MFC broth microdilution (CLSI); settings: ATCC204304
Procedure: as §1

[13] = system: Cryptococcus deuterogattii; assay: MIC/MFC broth microdilution (CLSI); settings: Cryptococcus deuterogattii;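 note: broth microdilution per CLSI M27-Ed4. MFC is the lowest concentration yielding no colonies when MIC broths are subcultured onto SDA plates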
Procedure: as §1

[14] = system: Aspergillus flavus; assay: checkerboard drug interaction (FICI, MICc);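 note: simplified diagonal checkerboard screen pairing azole antifungals with FPPS inhibitors, FICI calculated under the Loewe additivity model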; type: cell-based; parameters: INH MICc (KET:INH) / INH MICc (FLC:INH): unit not given beside the values; settings: A. flavus
[15] = system: Candida albicans; assay: checkerboard drug interaction (FICI, MICc);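 for all read-outs here: antifungal plus FPPS inhibitor combinations on Candida albicans tested by a simplified diagonal checkerboard screen, with FICI calculated under the Loewe additivity model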; type: cell-based; settings: C. albicans; for INH FD (MIC-MICc fold decrease): fold decrease of inhibitor MIC
Procedure: as §2

[16] = system: Saccharomyces cerevisiae; assay: MIC/MFC broth microdilution (CLSI); type: cell-based; settings: Saccharomyces cerevisiae S288c
Procedure: as §1

[17] = system: Saccharomyces cerevisiae; assay: checkerboard drug interaction (FICI, MICc); type: cell-based; parameters: INH MICc / INH MICc (ITR:INH) / INH MICc (KET:INH) / INH MICc (FLC:INH): unit not given beside the values;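 note: simplified diagonal checkerboard screen pairing antifungals with FPPS inhibitors, FICI calculated under the Loewe additivity model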
[18] = system: Cryptococcus deuterogattii; assay: checkerboard drug interaction (FICI, MICc);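 for all read-outs here: simplified diagonal checkerboard screen pairing antifungal drugs with FPPS inhibitors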; type: cell-based; settings: C. deuterogattii; for INH FD (MIC-MICc fold decrease): fold decrease of inhibitor MIC
Procedure: as §2

[19] = system: eight fungal species; assay: MIC/MFC summary across the eight fungal species of Table 1; type: cell-based
Procedure: The antifungal activity of these compounds was evaluated according to CLSI guidelines ([16]).

[20] = FLC:INH combination, MIC of the inhibitor in combination with FLC
[21] = FLC:INH combination, fold decrease of FLC MIC
[22] = ITR:INH combination, MIC of the inhibitor in combination with ITR
[23] = ITR:INH combination, fold decrease of ITR MIC
[24] = KET:INH combination, MIC of the inhibitor in combination with KET
[25] = KET:INH combination, fold decrease of KET MIC
[26] = Fractional Inhibitory Concentration Index, fluconazole + inhibitor
[27] = Fractional Inhibitory Concentration Index, itraconazole + inhibitor
[28] = Fractional Inhibitory Concentration Index, ketoconazole + inhibitor
[29] = MIC of the inhibitor in combination with fluconazole
[30] = MIC of the inhibitor in combination with itraconazole
[31] = MIC of the inhibitor in combination with ketoconazole
[32] = MIC-MICc fold decrease of fluconazole, negative = increase
[33] = MIC-MICc fold decrease of itraconazole, negative = increase
[34] = MIC-MICc fold decrease of ketoconazole, negative = increase
[35] = MIC-MICc fold decrease of the inhibitor, with fluconazole
[36] = MIC-MICc fold decrease of the inhibitor, with itraconazole
[37] = MIC-MICc fold decrease of the inhibitor, with ketoconazole

Structure (SMILES): CCCCCCCCCCCCN1CCC[C@H]1C(=O)N[C@H](CC(=O)OC)C(=O)OC [dmPDA12]
- MFC [1]: > 128 µg/mL
- MIC [1]: > 128 µg/mL
- MFC [2]: > 128 µg/mL
- MIC [2]: 128 µg/mL (≈ 300 µM)
- FICI ([3]; FLC:INH combination): 1.25
- INH MICc [3, 20]: 8
- FLC FD (MIC-MICc fold decrease) [3, 21]: 4
- INH FD (MIC-MICc fold decrease) ([3]; FLC:INH combination): 1
- FICI ([3]; ITR:INH combination): 1.25
- INH MICc [3, 22]: 8
- ITR FD (MIC-MICc fold decrease) [3, 23]: 4
- INH FD (MIC-MICc fold decrease) ([3]; ITR:INH combination): 1
- FICI ([3]; KET:INH combination): 1.25
- INH MICc [3, 24]: 8
- KET FD (MIC-MICc fold decrease) [3, 25]: 4
- INH FD (MIC-MICc fold decrease) ([3]; KET:INH combination): 1
- MFC [4]: 32 µg/mL (≈ 75 µM)
- MIC [4]: 8 µg/mL (≈ 18.8 µM)
- FICI (FLC:INH) [5, 26]: 1.5
- FICI (ITR:INH) [5, 27]: 0.26
- FICI (KET:INH) [5, 28]: 2
- INH MICc (FLC:INH) [5, 29]: 128
- INH MICc (ITR:INH) [5, 30]: 1
- INH MICc (KET:INH) [5, 31]: 128
- FLC FD (FLC:INH) [5, 32]: 2
- ITR FD (ITR:INH) [5, 33]: 4
- KET FD (KET:INH) [5, 34]: 1
- INH FD (FLC:INH) [5, 35]: 1
- INH FD (ITR:INH) [5, 36]: 128
- INH FD (KET:INH) [5, 37]: 1
- FICI (FLC:INH) [6, 26]: ≥4
- FICI (ITR:INH) [6, 27]: ≥4
- FICI (KET:INH) [6, 28]: ≥4
- INH MICc (FLC:INH) [6, 29]: 32
- INH MICc (ITR:INH) [6, 30]: 32
- INH MICc (KET:INH) [6, 31]: 32
- FLC FD (FLC:INH) [6, 32]: -2
- ITR FD (ITR:INH) [6, 33]: 8
- KET FD (KET:INH) [6, 34]: 4
- INH FD (FLC:INH) [6, 35]: -4
- INH FD (ITR:INH) [6, 36]: -4
- INH FD (KET:INH) [6, 37]: -4
- MFC [7]: 128 µg/mL (≈ 300 µM)
- MIC [7]: 128 µg/mL (≈ 300 µM)
- IC50 ([8]; HEK-293T cells, read-out: IC50): 0.161 µg/mL (≈ 0.377 µM)
- IC50 ([8]; read-out: HEK IC50): 0.161 µg/mL (≈ 0.377 µM)
- GM fungal MICc [9]: 12
- FICI ([10]; FLC:INH combination): 2.5
- INH MICc [10, 20]: 8
- FLC FD (MIC-MICc fold decrease) [10, 21]: 2
- INH FD (MIC-MICc fold decrease) ([10]; FLC:INH combination): 1
- FICI ([10]; ITR:INH combination): 1.5
- INH MICc [10, 22]: 4
- ITR FD (MIC-MICc fold decrease) [10, 23]: 2
- INH FD (MIC-MICc fold decrease) ([10]; ITR:INH combination): 2
- FICI ([10]; KET:INH combination): 0.38
- INH MICc [10, 24]: 1
- KET FD (MIC-MICc fold decrease) [10, 25]: 8
- INH FD (MIC-MICc fold decrease) ([10]; KET:INH combination): 8
- MFC [11]: > 128 µg/mL
- MIC [11]: 8 µg/mL (≈ 18.8 µM)
- MFC [12]: > 128 µg/mL
- MIC [12]: > 128 µg/mL
- MFC [13]: 32 µg/mL (≈ 75 µM)
- MIC [13]: 8 µg/mL (≈ 18.8 µM)
- FICI (FLC:INH) [14, 26]: 1.5
- FICI (ITR:INH) [14, 27]: 0.28
- FICI (KET:INH) [14, 28]: 0.27
- INH MICc (FLC:INH) [14, 29]: 128
- INH MICc (ITR:INH) [14, 30]: 8
- INH MICc (KET:INH) [14, 31]: 4
- FLC FD (FLC:INH) [14, 32]: 1
- ITR FD (ITR:INH) [14, 33]: 4
- KET FD (KET:INH) [14, 34]: 4
- INH FD (FLC:INH) [14, 35]: 2
- INH FD (ITR:INH) [14, 36]: 32
- INH FD (KET:INH) [14, 37]: 64
- FICI ([15]; FLC:INH combination): 1.06
- INH MICc [15, 20]: 8
- FLC FD (MIC-MICc fold decrease) [15, 21]: 1
- INH FD (MIC-MICc fold decrease) ([15]; FLC:INH combination): 16
- FICI ([15]; ITR:INH combination): 0.53
- INH MICc [15, 22]: 4
- ITR FD (MIC-MICc fold decrease) [15, 23]: 2
- INH FD (MIC-MICc fold decrease) ([15]; ITR:INH combination): 32
- FICI ([15]; KET:INH combination): 0.53
- INH MICc [15, 24]: 4
- KET FD (MIC-MICc fold decrease) [15, 25]: 2
- INH FD (MIC-MICc fold decrease) ([15]; KET:INH combination): 32
- MFC [16]: > 128 µg/mL
- MIC [16]: 64 µg/mL (≈ 150 µM)
- FICI (FLC:INH) [17, 26]: 0.75
- FICI (ITR:INH) [17, 27]: 1.06
- FICI (KET:INH) [17, 28]: 0.56
- INH MICc (FLC:INH) [17, 29]: 32
- INH MICc (ITR:INH) [17, 30]: 4
- INH MICc (KET:INH) [17, 31]: 32
- FLC FD (FLC:INH) [17, 32]: 4
- ITR FD (ITR:INH) [17, 33]: 1
- KET FD (KET:INH) [17, 34]: 16
- INH FD (FLC:INH) [17, 35]: 2
- INH FD (ITR:INH) [17, 36]: 16
- INH FD (KET:INH) [17, 37]: 2
- FICI ([18]; FLC:INH combination): 2
- INH MICc [18, 20]: 64
- FLC FD (MIC-MICc fold decrease) [18, 21]: 1
- INH FD (MIC-MICc fold decrease) ([18]; FLC:INH combination): 1
- FICI ([18]; ITR:INH combination): 0.38
- INH MICc [18, 22]: 8
- ITR FD (MIC-MICc fold decrease) [18, 23]: 4
- INH FD (MIC-MICc fold decrease) ([18]; ITR:INH combination): 8
- FICI ([18]; KET:INH combination): 0.16
- INH MICc [18, 24]: 8
- KET FD (MIC-MICc fold decrease) [18, 25]: 32
- INH FD (MIC-MICc fold decrease) ([18]; KET:INH combination): 8
- MFC ([19]; across eight species, read-out: Geometric mean MFC): 140 µg/mL (≈ 327 µM)
- MIC ([19]; geometric mean across eight species, read-out: GM fungal MIC): 49.4 µg/mL (≈ 116 µM)
- MIC ([19]; read-out: Geometric mean MIC): 49.4 µg/mL (≈ 116 µM)
